According to publication PMC11062899, “De novo development of small cyclic peptides that are orally bioavailable” (Nature Chemical Biology, 2023):
Values joined by “and” are separate entries in the source; they are usually repeats but may differ in a detail not shown here. Identical values can stand only once. Like-named read-outs stand apart in the source and are kept apart here.

Key:
[1] = target: human α-thrombin (Homo sapiens, UniProt P00734); assay: Protease inhibition, Ki for human α-thrombin (fluorogenic substrate Z-Gly-Gly-Arg-AMC); assay type: biochemical; settings: for Slope normalized to DMSO (proteolytic substrate cleavage over time): replicates R1-R3
In short: (§1)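 Ki derived through Cheng–Prusoff from IC50s (four-parameter logistic fit) against activity of peptide-free controls. Product fluorescence was read every 3 min over 30 min at 25 °C, substrate Z-Gly-Gly-Arg-AMC at 50 μM. Enzyme was 2 nM human or 3 nM rat α-thrombin, pH 7.4 buffer.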

[2] = target: T1, rat α-thrombin (Rattus norvegicus, UniProt P18292); assay: Protease inhibition, Ki for rat α-thrombin (fluorogenic substrate Z-Gly-Gly-Arg-AMC); assay type: biochemical; settings: for Slope normalized to DMSO (proteolytic substrate cleavage over time): replicates R1-R3
T1 construct: rat α-thrombin (Molecular Innovations) were used at final concentrations of 2 nM and 3 nM; purchased Molecular Innovations
In short: as §1

[3] = target: T2, porcine pepsin (Sus scrofa, UniProt P00791); assay: Peptide stability in simulated gastric fluid (SGF); assay type: in vitro ADME
T2 construct: 0.32 g of porcine pepsin (Sigma-Aldrich, P7125) was dissolved under gentle agitation; purchased Sigma-Aldrich P7125
In short: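 Peptide from a 1 mM DMSO stock was added to fluid pre-warmed at 37 °C. SGF was pH 1.2 NaCl with porcine pepsin (0.32 g per 100 ml), and SIF was pH 6.8 potassium phosphate with porcine pancreatin (1 g per 100 ml). Supernatant peptide was quantified by LC–MS, with residual expressed as T1/T0.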

[4] = Passive artificial membrane permeability (PAMPA)
[5] = Metabolic stability in rat liver microsomes (RLMs); settings: for TIC value of compound, metabolic stability RLM: replicates R1-R3; for microsomal CLint / half-life: rat

T2 sequence (P00791 60-385): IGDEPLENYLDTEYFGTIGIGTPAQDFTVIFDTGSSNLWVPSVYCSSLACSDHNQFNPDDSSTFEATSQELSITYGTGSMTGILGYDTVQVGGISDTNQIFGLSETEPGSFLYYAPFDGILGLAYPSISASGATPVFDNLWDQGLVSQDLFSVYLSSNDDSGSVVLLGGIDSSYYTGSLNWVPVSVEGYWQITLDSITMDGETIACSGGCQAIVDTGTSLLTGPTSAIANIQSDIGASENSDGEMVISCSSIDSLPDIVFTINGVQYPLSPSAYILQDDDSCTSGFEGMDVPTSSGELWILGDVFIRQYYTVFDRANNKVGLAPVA

- Slope normalized to DMSO (proteolytic substrate cleavage over time) ([1]; human alpha thrombin, peptide 1.02E-03 uM): 91.7 and 75.0 and 84.5
- Slope normalized to DMSO (proteolytic substrate cleavage over time) ([1]; human alpha thrombin, peptide 1.04E+00 uM): 9.7 and 14.2 and 12.5
- Slope normalized to DMSO (proteolytic substrate cleavage over time) ([1]; human alpha thrombin, peptide 1.27E-04 uM): 92.1 and 89.4 and 95.4
- Slope normalized to DMSO (proteolytic substrate cleavage over time) ([1]; human alpha thrombin, peptide 1.30E-01 uM): 16.4 and 22.7 and 18.5
- Slope normalized to DMSO (proteolytic substrate cleavage over time) ([1]; human alpha thrombin, peptide 1.59E-05 uM): 104.8 and 95.5 and 101.0
- Slope normalized to DMSO (proteolytic substrate cleavage over time) ([1]; human alpha thrombin, peptide 1.63E-02 uM): 54.1 and 48.1 and 57.3
- Slope normalized to DMSO (proteolytic substrate cleavage over time) ([1]; human alpha thrombin, peptide 1.67E+01 uM): 4.0 and 6.4 and 1.8
- Slope normalized to DMSO (proteolytic substrate cleavage over time) ([1]; human alpha thrombin, peptide 2.03E-03 uM): 79.8 and 80.8 and 68.0
- Slope normalized to DMSO (proteolytic substrate cleavage over time) ([1]; human alpha thrombin, peptide 2.08E+00 uM): 5.1 and 8.3 and -0.433
- Slope normalized to DMSO (proteolytic substrate cleavage over time) ([1]; human alpha thrombin, peptide 2.54E-04 uM): 93.1 and 85.9 and 92.0
- Slope normalized to DMSO (proteolytic substrate cleavage over time) ([1]; human alpha thrombin, peptide 2.60E-01 uM): 11.6 and 16.8 and 13.0
- Slope normalized to DMSO (proteolytic substrate cleavage over time) ([1]; human alpha thrombin, peptide 3.18E-05 uM): 103.7 and 94.2 and 96.3
- Slope normalized to DMSO (proteolytic substrate cleavage over time) ([1]; human alpha thrombin, peptide 3.26E-02 uM): 46.3 and 39.7 and 47.4
- Slope normalized to DMSO (proteolytic substrate cleavage over time) ([1]; human alpha thrombin, peptide 3.33E+01 uM): -4.9 and 8.0 and -5.2
- Slope normalized to DMSO (proteolytic substrate cleavage over time) ([1]; human alpha thrombin, peptide 4.07E-03 uM): 68.4 and 49.8 and 67.1
- Slope normalized to DMSO (proteolytic substrate cleavage over time) ([1]; human alpha thrombin, peptide 4.17E+00 uM): 7.1 and 16.4 and 0.5
- Slope normalized to DMSO (proteolytic substrate cleavage over time) ([1]; human alpha thrombin, peptide 5.09E-04 uM): 91.3 and 86.2 and 83.7
- Slope normalized to DMSO (proteolytic substrate cleavage over time) ([1]; human alpha thrombin, peptide 5.21E-01 uM): 9.0 and 17.4 and 10.1
- Slope normalized to DMSO (proteolytic substrate cleavage over time) ([1]; human alpha thrombin, peptide 6.36E-05 uM): 103.6 and 90.9 and 101.0
- Slope normalized to DMSO (proteolytic substrate cleavage over time) ([1]; human alpha thrombin, peptide 6.51E-02 uM): 26.8 and 23.7 and 23.8
- Slope normalized to DMSO (proteolytic substrate cleavage over time) ([1]; human alpha thrombin, peptide 6.67E+01 uM): 5.5 and 8.8 and 5.2
- Slope normalized to DMSO (proteolytic substrate cleavage over time) ([1]; human alpha thrombin, peptide 7.95E-06 uM): 105.4 and 96.7 and 100.1
- Slope normalized to DMSO (proteolytic substrate cleavage over time) ([1]; human alpha thrombin, peptide 8.14E-03 uM): 56.5 and 45.5 and 52.6
- Slope normalized to DMSO (proteolytic substrate cleavage over time) ([1]; human alpha thrombin, peptide 8.33E+00 uM): -1.1 and 9.3 and 3.5
- IC50 ([1]; human alpha thrombin, single replicates R1-R3, read-out: IC50, human alpha thrombin inhibition): 13.6 nM and 7.3 nM and 13.8 nM
- Ki ([1]; purified peptide, mean and s.d. of three measurements, read-out: Ki human α-thrombin): 8.9 ± 2.3 nM
- Ki ([2]; purified peptide, mean and s.d. of three measurements, read-out: Ki rat α-thrombin): 1.1 ± 0.41 nM
- Slope normalized to DMSO (proteolytic substrate cleavage over time) ([2]; rat alpha thrombin, peptide 1.02E-03 uM): 71.6 and 67.2 and 58.0
- Slope normalized to DMSO (proteolytic substrate cleavage over time) ([2]; rat alpha thrombin, peptide 1.04E+00 uM): 6.5 and 8.7 and 6.4
- Slope normalized to DMSO (proteolytic substrate cleavage over time) ([2]; rat alpha thrombin, peptide 1.27E-04 uM): 89.6 and 85.7 and 79.9
- Slope normalized to DMSO (proteolytic substrate cleavage over time) ([2]; rat alpha thrombin, peptide 1.30E-01 uM): 12.8 and 13.3 and 8.9
- Slope normalized to DMSO (proteolytic substrate cleavage over time) ([2]; rat alpha thrombin, peptide 1.59E-05 uM): 102.5 and 122.8 and 94.2
- Slope normalized to DMSO (proteolytic substrate cleavage over time) ([2]; rat alpha thrombin, peptide 1.63E-02 uM): 35.3 and 31.4 and 27.2
- Slope normalized to DMSO (proteolytic substrate cleavage over time) ([2]; rat alpha thrombin, peptide 1.67E+01 uM): 4.8 and 5.1 and 4.2
- Slope normalized to DMSO (proteolytic substrate cleavage over time) ([2]; rat alpha thrombin, peptide 2.03E-03 uM): 56.5 and 52.5 and 45.1
- Slope normalized to DMSO (proteolytic substrate cleavage over time) ([2]; rat alpha thrombin, peptide 2.08E+00 uM): 5.0 and 7.7 and 6.7
- Slope normalized to DMSO (proteolytic substrate cleavage over time) ([2]; rat alpha thrombin, peptide 2.54E-04 uM): 83.1 and 80.0 and 103.6
- Slope normalized to DMSO (proteolytic substrate cleavage over time) ([2]; rat alpha thrombin, peptide 2.60E-01 uM): 12.7 and 11.2 and 6.9
- Slope normalized to DMSO (proteolytic substrate cleavage over time) ([2]; rat alpha thrombin, peptide 3.18E-05 uM): 95.8 and 95.0 and 90.9
- Slope normalized to DMSO (proteolytic substrate cleavage over time) ([2]; rat alpha thrombin, peptide 3.26E-02 uM): 29.1 and 26.7 and 19.1
- Slope normalized to DMSO (proteolytic substrate cleavage over time) ([2]; rat alpha thrombin, peptide 3.33E+01 uM): 5.0 and 6.0 and 4.0
- Slope normalized to DMSO (proteolytic substrate cleavage over time) ([2]; rat alpha thrombin, peptide 4.07E-03 uM): 51.9 and 49.0 and 39.9
- Slope normalized to DMSO (proteolytic substrate cleavage over time) ([2]; rat alpha thrombin, peptide 4.17E+00 uM): 5.5 and 6.1 and 4.2
- Slope normalized to DMSO (proteolytic substrate cleavage over time) ([2]; rat alpha thrombin, peptide 5.09E-04 uM): 76.1 and 71.5 and 67.7
- Slope normalized to DMSO (proteolytic substrate cleavage over time) ([2]; rat alpha thrombin, peptide 5.21E-01 uM): 9.5 and 9.3 and 6.7
- Slope normalized to DMSO (proteolytic substrate cleavage over time) ([2]; rat alpha thrombin, peptide 6.36E-05 uM): 93.9 and 94.0 and 87.7
- Slope normalized to DMSO (proteolytic substrate cleavage over time) ([2]; rat alpha thrombin, peptide 6.51E-02 uM): 18.8 and 16.8 and 12.8
- Slope normalized to DMSO (proteolytic substrate cleavage over time) ([2]; rat alpha thrombin, peptide 6.67E+01 uM): 5.5 and 6.5 and 3.1
- Slope normalized to DMSO (proteolytic substrate cleavage over time) ([2]; rat alpha thrombin, peptide 7.95E-06 uM): 102.1 and 101.6 and 99.0
- Slope normalized to DMSO (proteolytic substrate cleavage over time) ([2]; rat alpha thrombin, peptide 8.14E-03 uM): 40.8 and 35.1 and 27.1
- Slope normalized to DMSO (proteolytic substrate cleavage over time) ([2]; rat alpha thrombin, peptide 8.33E+00 uM): 4.4 and 7.1 and 3.1
- IC50 ([2]; rat alpha thrombin, single replicates R1-R3, read-out: IC50, rat alpha thrombin inhibition): 2.94 nM and 1.12 nM and 1.9 nM
- SGF stability, Residual peptide Average ([3]; after 8 h vs 0 h (TIC), average of R1-R3): 106.85
- SGF stability, Residual peptide ([3]; after 8 h vs 0 h (TIC), single replicates R1-R3): 117.40 and 115.58 and 87.56
- remaining at 8 h ([3]; simulated gi fluid, 8 h, 37 °C, pH 1.2, read-out: Proteolytic stability: SGF (8 h) % remaining): 107 ± 17%
- PAMPA permeability: % permeability ([4]; 50 μM, 12–18 h, acceptor concentration relative to equilibrium): 47 ± 12%
- Papp at 50 μM ([4]; PAMPA, pH 7.4): 6.17 ×10⁻⁶ cm/s
- Permeability% Average ([4]; top well sample vs theoretical equilibrium sample (TIC), average of R1-R3): 46.9%
- Permeability% ([4]; top well sample vs theoretical equilibrium sample (TIC), single replicates R1-R3): 48.47% and 34.58% and 57.51%
- TIC value of compound, metabolic stability RLM ([5]; 0 min): 4102350 (2×) and 4260631
- TIC value of compound, metabolic stability RLM ([5]; 5 min): 2223511 and 2018425 and 2686035
- TIC value of compound, metabolic stability RLM ([5]; 15 min): 283425 and 185564 and 435364
- TIC value of compound, metabolic stability RLM ([5]; 30 min): 0 (2×) and 35161
- TIC value of compound, metabolic stability RLM ([5]; 60 min): 0
- TIC value of compound, 0 min, R1 ([5]; rat liver microsomes, 0 min, replicate R1): 4102350
- TIC value of compound, 0 min, R3 ([5]; rat liver microsomes, 0 min, replicate R3): 4260631
- TIC value of compound, 5 min, R1 ([5]; rat liver microsomes, 5 min, replicate R1): 2223511
- TIC value of compound, 5 min, R3 ([5]; rat liver microsomes, 5 min, replicate R3): 2686035
- TIC value of compound, 15 min, R1 ([5]; rat liver microsomes, 15 min, replicate R1): 283425
- TIC value of compound, 15 min, R3 ([5]; rat liver microsomes, 15 min, replicate R3): 435364
- TIC value of compound, 30 min, R1 ([5]; rat liver microsomes, 30 min, replicate R1): 0
- TIC value of compound, 30 min, R3 ([5]; rat liver microsomes, 30 min, replicate R3): 35161
- TIC value of compound, 60 min, R1 ([5]; rat liver microsomes, 60 min, replicate R1): 0
- TIC value of compound, 60 min, R3 ([5]; rat liver microsomes, 60 min, replicate R3): 0
- microsomal CLint ([5]; CL (ul/min/mg protein), R1, RLM CL, replicate R1, unrounded): 278 µL/min/mg
- microsomal CLint ([5]; CL (ul/min/mg protein), R2, RLM CL, replicate R2, unrounded): 276 µL/min/mg
- microsomal CLint ([5]; CL (ul/min/mg protein), R3, RLM CL, replicate R3, unrounded): 234 µL/min/mg
- half-life ([5]; Half Life (min) in RLMs (single replicates R1–R3), Fig. 5e source data): 4.98 min
- half-life ([5]; Half Life (min), R1, RLM metabolic stability, replicate R1): 4.98 min
- half-life ([5]; Half Life (min), R2, RLM metabolic stability, replicate R2): 5.02 min
- half-life ([5]; Half Life (min), R3, RLM metabolic stability, replicate R3): 5.93 min
- microsomal CLint ([5]; microsomes, Clearance (CL) in RLMs, calculated from half-life, mean and s.d. of three measurements): 260 ± 20 µL/min/mg
- half-life ([5]; microsomes, Half Life, RLM, individual replicates R1-R3): 4.98 min
- half-life ([5]; microsomes, Metabolic stability: Half life T1/2 (min), RLMs, mean and SD, three measurements): 5.3 ± 0.4 min
- microsomal CLint ([5]; microsomes, RLM CL, Average, average of R1-R3): 263 µL/min/mg
- microsomal CLint ([5]; microsomes, RLM CL, R1, RLM CL, replicate R1, summary block): 278 µL/min/mg
- microsomal CLint ([5]; microsomes, RLM CL, R2, RLM CL, replicate R2, summary block): 276 µL/min/mg
- microsomal CLint ([5]; microsomes, RLM CL, R3, RLM CL, replicate R3, summary block): 234 µL/min/mg
Compound: O=C1C[C@H]2CCCN2C(=O)[C@H](Cc2ccccc2)NC(=O)[C@@H](NC(=O)c2ccc(Cl)s2)CSC/C=C/CSCCN1 [peptide 32]
- Ki ([1]; human alpha thrombin, single replicates R1-R3, read-out: Ki, human alpha thrombin inhibition): 10.4 nM (2×) and 5.65 nM (2×) and 10.6 nM (2×)
- Ki ([2]; rat alpha thrombin, single replicates R1-R3, read-out: Ki, rat alpha thrombin inhibition): 1.63 nM (2×) and 0.618 nM (2×) and 1.05 nM
